Laboratory results as given in patent publication US11965006B2, “Antimicrobial and anti-cancer therapy” (UNIVERSITY OF PITTSBURGH—OF THE COMMONWEALTH SYSTEM OF …, priority 2016, dated 2024).
“Also recorded” adds a separate entry of the source. Square brackets hold non-standard residues; d marks the D form. Ends that are not written are not given here. Peptide text beside a SMILES is read from it.

Key:
[1] = tested on: Enterococcus faecium MDR clinical isolates; assay type: cell-based; conditions: MDR clinical isolates, 18 h
Method: (§1) The bactericidal activities were examined using standard bacterial culture media (MHB) without the inclusion of human blood.
(§2) Tables 3 and 4 provide the MIC data for the tested AMPs against a variety of infectious species. The following strains were tested: Enterococcus faecium MDR clinical isolates Ef 25153 and Ef 26125; methicillin-resistant Staphylococcus aureus (MRSA) clinical isolates USA300 and 150-10; Klebsiella pneumonia MDR clinical isolates C3, C5, A5, D7 and E6; and Pseudomonas aeruginosa MDR clinical isolates PA 82-8 and PA 129-5. […] Table 5 provides the data for the D-amino acid substituted AMPs and their bactericidal activities against various Klebsiella pneumonia multi-drug resistant (MDR) clinical isolates. All odd number Kp bacteria (isolated prior to colistin treatment; colistin sensitive) are paired with the corresponding even number Kp bacteria (isolated after colistin treatment; colistin resistant) from the same patient. O.D. readings represent the bacterial growth with a background reading of about 0.049+/−0.003.

[2] = tested on: Klebsiella pneumonia MDR clinical isolates; assay type: cell-based; conditions: 18 h
Method: as §1, §2

[3] = tested on: Pseudomonas aeruginosa MDR clinical isolates; assay type: cell-based; conditions: MDR clinical isolates, 18 h
Method: as §1, §2

[4] = tested on: methicillin-resistant Staphylococcus aureus (MRSA) clinical isolates; assay type: cell-based; conditions: methicillin-resistant clinical isolates, 18 h
Method: as §1, §2

[5] = tested on: P. aeruginosa lipopolysaccharide (LPS)-induced secretion of tumor necrosis factor (TNF) in Raw (264.7) Cells; test: Neutralization of LPS-induced TNF secretion; assay type: cell-based; conditions: 1 μg/ml LPS
Method: Anti-inflammatory activity is based on the determination of cytokine stimulation of major inflammatory (e.g. TNF) or anti-inflammatory (e.g., IL-10) cytokines. For in vitro studies, TNF is measured using culture medium from LPS-stimulated macrophage cultures in the presence or absence of peptide treatment. For in vivo studies, cytokine levels in bronchoalveolar lavage (BAL) fluid were quantified using the mouse cytokine multiplex panel assay (Milliplex; Millipore, Billerica, Mass.). The expressions of cytokines were analyzed using the Luminex assay system, based on manufacturer's instructions and our previous publication. Standard recombinant protein solution was used to generate a standard curve for each analyzed protein. Absolute cytokine concentrations were calculated from the standard curve for each cytokine.
A high dosage (1 μg/ml) of LPS was used to stimulate the TNF secretion in raw cells.

[6] = In vivo toxicity / maximum tolerated dose; design: species or system Mice (strain: Swiss Webster)
Method: The modified AMPs show a lower toxicity and higher maximum tolerated dosage (MTD) than WLBU2 (SEQ ID No. 26). The MTD for WLBU2 (SEQ ID No. 26) is 15 mg/kg, for Colistin is 10 mg/kg, and SEQ ID No. 15 is 30 mg/kg (FIG. 14A).
Mice (strain: Swiss Webster) were injected with SEQ ID No. 15 peptides intravenously (i.v.) or intraperitoneally (i.p.) at the concentrations indicated. […] Thus, the estimated maximum tolerated dose (MTD) is around 40-50 mpk (i.v.). On a similar setting of testing other AMPS, the MTD for WLBU2 is 15 mpk (i.v.) and 10 mpk (i.v.) for colistin.

[7] = tested on: Klebsiella pneumonia multi-drug resistant (MDR) clinical isolates; test: Bacterial growth (O.D. readings) of Kp isolates treated with D-amino acid substituted AMPs; assay type: cell-based
Method: as §2

[8] = Kp strain 1 (colistin sensitive), background about 0.049
[9] = Kp strain 2 (colistin resistant), background about 0.049
[10] = Kp strain 3 (colistin sensitive)
[11] = Kp strain 4 (colistin resistant)
[12] = Kp strain 5 (colistin sensitive)
[13] = Kp strain 6 (colistin resistant)
[14] = Kp strain 7 (colistin sensitive)
[15] = Kp strain 8 (colistin resistant)
[16] = Kp strain 9 (colistin sensitive)
[17] = Kp strain 10 (colistin resistant)
[18] = Kp strain 11 (colistin sensitive)
[19] = Kp strain 12 (colistin resistant)
[20] = Kp strain 13 (colistin sensitive)
[21] = Kp strain 14 (colistin resistant)
[22] = Kp strain 15 (colistin sensitive)
[23] = Kp strain 16 (colistin resistant)
[24] = Kp strain 17 (colistin sensitive)
[25] = Kp strain 18 (colistin resistant)
[26] = Kp strain 19 (colistin sensitive)
[27] = Kp strain 20 (colistin resistant)
[28] = Kp strain 21 (colistin sensitive)
[29] = Kp strain 22 (colistin resistant)
[30] = Kp strain 23 (colistin sensitive)
[31] = Kp strain 24 (colistin resistant)

## ILKPGGGTSGGLLGGLLGKVTSVIPGLNNI [SEQ ID No. 1, reference compound]
[1]
  MIC Ef 25153: >32 µM
  MIC Ef 26125: >32 µM
[2]
  MIC A5: >32 µM
  MIC C3: >32 µM
  MIC C5: >32 µM
  MIC D7: >32 µM
  MIC E6: >32 µM
[3]
  MIC PA 82-8: >32 µM
  MIC PA 129-5: >32 µM
[4]
  MIC MRSA 150-10: >32 µM
  MIC MRSA USA300: >32 µM
[5]
  neutralizing LPS-induced TNF secretion: display neutralizing activities

## LLGDFFRKSKEKIGKEFKRIVQRIKDFLRNLLPRTES [SEQ ID No. 25, reference compound]
[1]
  MIC Ef 25153: <16 µM
  MIC Ef 26125: <16 µM
[2]
  MIC A5: >32 µM
  MIC C3: 32 µM
  MIC C5: >32 µM
  MIC D7: <16 µM
  MIC E6: <16 µM
[3]
  MIC PA 82-8: 32 µM
  MIC PA 129-5: 16 µM
[4]
  MIC MRSA 150-10: 32 µM
  MIC MRSA USA300: >32 µM
[5]
  neutralizing LPS-induced TNF secretion: Do Not Neutralize

## LKKWWKKVKGLLGGLLGKVTSVIK [SEQ ID No. 15]
[1]
  MIC Ef 25153: 2 µM
  MIC Ef 26125: <1 µM
[2]
  MIC A5: >4 µM
  MIC C3: <2 µM
  MIC C5: 4 µM
  MIC D7: 2 µM
  MIC E6: 2 µM
[3]
  MIC PA82 82-8: 2 µM
  MIC PA 129-5: 1 µM
[4]
  MIC MRSA 150-10: 2 µM
  MIC MRSA USA300: 4 µM
[6]; 60 mg/kg i.v.
  tolerability: One mouse injected with 60 mg/kg (mpk, i.v.) died
[6]; 30 mpk i.p.
  tolerability: all mice were active and tolerated the dosage
[6]; 40 mpk i.v.
  tolerability: all mice were active and tolerated the dosage
[6]; Swiss Webster, mouse, in vivo, FIG. 14A, read-out: maximum tolerated dosage (MTD)
  MTD: 30 mg/kg
[6]; figure legends FIG. 14A, FIG. 30
  in vivo toxicity: lower toxicity (higher MTD) than WLBU2; also recorded: very low in vivo toxicity
[6]; i.v., Swiss Webster mice
  maximum tolerated dose (MTD): 40-50 mpk

## LKKWWKTSKGLLGGLLGKVTSVIK [SEQ ID No. 13]
[1]
  MIC Ef 25153: <16 µM
  MIC Ef 26125: <8 µM
[2]
  MIC A5: >16 µM
  MIC C3: >16 µM
  MIC C5: 16 µM
  MIC D7: <8 µM
  MIC E6: <8 µM
[3]
  MIC PA82 82-8: 16 µM
  MIC PA 129-5: <16 µM
[4]
  MIC MRSA USA300: <8 µM
[5]
  neutralizing LPS-induced TNF secretion: Display Neutralizing Activities

## CC(C)[C@H](NC(=O)[C@H](Cc1c[nH]c2ccccc12)NC(=O)[C@H](CCCNC(=N)N)NC(=O)[C@@H](N)CCCNC(=N)N)C(=O)N[C@@H](CCCNC(=N)N)C(=O)N[C@@H](CCCNC(=N)N)C(=O)N[C@@H](C(=O)N[C@@H](CCCNC(=N)N)C(=O)N[C@@H](CCCNC(=N)N)C(=O)N[C@@H](C(=O)N[C@@H](Cc1c[nH]c2ccccc12)C(=O)N[C@@H](CCCNC(=N)N)C(=O)N[C@@H](CCCNC(=N)N)C(=O)N[C@H](C(=O)N[C@@H](C(=O)N[C@@H](CCCNC(=N)N)C(=O)N[C@@H](C(=O)N[C@@H](C(=O)N[C@@H](CCCNC(=N)N)C(=O)N[C@@H](CCCNC(=N)N)C(=O)N[C@@H](Cc1c[nH]c2ccccc12)C(=O)N[C@@H](C(=O)N[C@@H](CCCNC(=N)N)C(=O)N[C@@H](CCCNC(=N)N)C(=O)O)C(C)C)C(C)C)C(C)C)C(C)C)C(C)C)C(C)C)C(C)C [SEQ ID No. 33] (H-RRWVRR[dV]RR[dV]WRRV[dV]R[dV][dV]RRW[dV]RR-OH; N-terminus and C-terminus assumed)
[7]; [8]
  O.D. reading: 0.104
[7]; [9]
  O.D. reading: 0.108
[7]; [10]
  O.D. reading: 0.048
[7]; [11]
  O.D. reading: 0.047
[7]; [12]
  O.D. reading: 0.053
[7]; [13]
  O.D. reading: 0.12
[7]; [14]
  O.D. reading: 0.046
[7]; [15]
  O.D. reading: 0.056
[7]; [16]
  O.D. reading: 0.043
[7]; [17]
  O.D. reading: 0.131
[7]; [18]
  O.D. reading: 0.057
[7]; [19]
  O.D. reading: 0.066
[7]; [20]
  O.D. reading: 0.05
[7]; [21]
  O.D. reading: 0.089
[7]; [22]
  O.D. reading: 0.048
[7]; [23]
  O.D. reading: 0.054
[7]; [24]
  O.D. reading: 0.044
[7]; [25]
  O.D. reading: 0.048
[7]; [26]
  O.D. reading: 0.049
[7]; [27]
  O.D. reading: 0.05
[7]; [28]
  O.D. reading: 0.048
[7]; [29]
  O.D. reading: 0.05
[7]; [30]
  O.D. reading: 0.047
[7]; [31]
  O.D. reading: 0.076

## GVKKKWKKKLGLKLWLKISGVVLG [SEQ ID No. 24, reference compound]
[1]
  MIC Ef 25153: >32 µM
  MIC Ef 26125: 16 µM
[2]
  MIC A5: 32 µM
  MIC C3: 32 µM
[3]
  MIC PA 82-8: >32 µM
  MIC PA 129-5: <16 µM
[4]
  MIC MRSA 150-10: >32 µM
  MIC MRSA USA300: >32 µM
[5]
  neutralizing LPS-induced TNF secretion: Display Neutralizing Activities

## LKKWWKKVKGLLGGLLGKVKKVIK [SEQ ID No. 17]
[1]
  MIC Ef 25153: <2 µM
  MIC Ef 26125: <2 µM
[2]
  MIC A5: >4 µM
  MIC C3: <2 µM
  MIC C5: 4 µM
  MIC D7: <2 µM
  MIC E6: <2 µM
[3]
  MIC PA82 82-8: 4 µM
  MIC PA 129-5: <2 µM
[4]
  MIC MRSA 150-10: <2 µM
  MIC MRSA USA300: <2 µM

## CC(C)[C@H](NC(=O)[C@H](Cc1c[nH]c2ccccc12)NC(=O)[C@H](CCCNC(=N)N)NC(=O)[C@@H](N)CCCNC(=N)N)C(=O)N[C@@H](CCCNC(=N)N)C(=O)N[C@@H](CCCNC(=N)N)C(=O)N[C@@H](C(=O)N[C@@H](CCCNC(=N)N)C(=O)N[C@@H](CCCNC(=N)N)C(=O)N[C@H](C(=O)N[C@@H](Cc1c[nH]c2ccccc12)C(=O)N[C@@H](CCCNC(=N)N)C(=O)N[C@@H](CCCNC(=N)N)C(=O)N[C@H](C(=O)N[C@@H](C(=O)N[C@@H](CCCNC(=N)N)C(=O)N[C@@H](C(=O)N[C@H](C(=O)N[C@@H](CCCNC(=N)N)C(=O)N[C@@H](CCCNC(=N)N)C(=O)N[C@@H](Cc1c[nH]c2ccccc12)C(=O)N[C@@H](C(=O)N[C@@H](CCCNC(=N)N)C(=O)N[C@@H](CCCNC(=N)N)C(=O)O)C(C)C)C(C)C)C(C)C)C(C)C)C(C)C)C(C)C)C(C)C [SEQ ID No. 32] (H-RRWVRR[dV]RRVWRRV[dV]R[dV]VRRW[dV]RR-OH; N-terminus and C-terminus assumed)
[7]; [8]
  O.D. reading: 0.039
[7]; [9]
  O.D. reading: 0.044
[7]; [10]
  O.D. reading: 0.043
[7]; [11]
  O.D. reading: 0.042
[7]; [12]
  O.D. reading: 0.042
[7]; [13]
  O.D. reading: 0.107
[7]; [14]
  O.D. reading: 0.042
[7]; [15]
  O.D. reading: 0.04
[7]; [16]
  O.D. reading: 0.042
[7]; [17]
  O.D. reading: 0.048
[7]; [18]
  O.D. reading: 0.048
[7]; [19]
  O.D. reading: 0.05
[7]; [20]
  O.D. reading: 0.048
[7]; [21]
  O.D. reading: 0.047
[7]; [22]
  O.D. reading: 0.048
[7]; [23]
  O.D. reading: 0.045
[7]; [24]
  O.D. reading: 0.045
[7]; [25]
  O.D. reading: 0.047
[7]; [26]
  O.D. reading: 0.048
[7]; [27]
  O.D. reading: 0.049
[7]; [28]
  O.D. reading: 0.051
[7]; [29]
  O.D. reading: 0.048
[7]; [30]
  O.D. reading: 0.048
[7]; [31]
  O.D. reading: 0.11

## LKKWWKKVKGLLGGLLGKVKSVIK [SEQ ID No. 16]
[1]
  MIC Ef 25153: <2 µM
  MIC Ef 26125: <2 µM
[2]
  MIC A5: >4 µM
  MIC C3: <2 µM
  MIC C5: 4 µM
  MIC D7: <2 µM
  MIC E6: <2 µM
[3]
  MIC PA82 82-8: 4 µM
  MIC PA 129-5: 4 µM
[4]
  MIC MRSA 150-10: 4 µM
  MIC MRSA USA300: <2 µM
